Where two headings read alike, the source gives them in different places.
Tests used:
[1] = Hygroscopicity of the anhydrous crystalline form; type: physicochemical
[2] = biological target: T1, human neutrophil elastase (HNE) (Homo sapiens, UniProt P08246); assay: Acute Hemorrhagic Assay: HNE-induced lung hemorrhage; type: in vivo, Syrian hamsters; details: hamster, hamsters, 50 μg/animal HNE intratracheally, read-out: ED50, inhibition of HNE-induced hemorrhage
T1 sequence (P08246 30-267): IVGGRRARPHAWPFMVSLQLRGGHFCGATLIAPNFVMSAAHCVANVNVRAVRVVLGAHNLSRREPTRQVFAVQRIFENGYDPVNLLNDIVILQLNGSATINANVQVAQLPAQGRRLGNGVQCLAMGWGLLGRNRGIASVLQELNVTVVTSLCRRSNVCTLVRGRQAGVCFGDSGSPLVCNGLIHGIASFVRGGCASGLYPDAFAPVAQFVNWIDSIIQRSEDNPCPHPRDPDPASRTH
Protocol: This assay relies on monitoring only the amount of hemorrhage in the lung following intratracheal administration of human neutrophil elastase (HNE). Hemorrhage is quantified by disrupting erythrocytes recovered in lung lavage fluid and comparing that to dilutions of whole hamster blood. […] Male Syrian hamsters (fasted for 16-18 hours prior to use) are lightly anaesthetised with Brevital sodium (30 mg/kg i.p.). […] Four hours after enzyme administration, the animals are killed with an overdose of pentobarbital sodium, the thorax opened and the lungs and heart removed and the lungs cleared of extraneous material. The excised lungs are lavaged with three changes of 2 ml PBS via a tracheal cannula. The recovered lavages are pooled, the volumes (about 5 mL) are recorded and the lavages stored at 4° C. until assayed. […] The optical densities (OD) of the disrupted lavages and blood samples are determined at 540 nm. The (μL blood equivalents)/(mL lavage) are determined by comparing the OD of the test samples with the OD of the standard curve prepared from whole hamster blood. The total μL equivalents of blood recovered is determined by multiplying recovered lavage volume by the (μL blood equivalents)/(mL lavage) for each sample.

[3] = administered in the above in vivo tests (hamsters)
[4] = Epimeric stability in the solid state; type: physicochemical; details: anhydrous form

Compound: COc1ccc(C(=O)N[C@H](C(=O)N2CCC[C@H]2C(=O)N[C@H](C(=O)C(F)(F)F)C(C)C)C(C)C)cc1 [compound of the invention, (S)-1-[(S)-2-(4-methoxybenzamido)-3-methylbutyryl]-N-[(S)-2-methyl-1-(trifluoroacetyl)propyl]pyrrolidine-2-carboxamide]
- hygroscopicity [1]: non-hygroscopic
- ED50 ([2]; i.v. administration): 0.59 mg/kg
- ED50 ([2]; oral dosing): 5.2 mg/kg
- overt toxicity [3]: No overt toxicity
- epimeric stability [4]: good epimeric stability

From patent US5739157A, “Diastereomeric pure trifluoromethyl ketone peptide derivatives as inhibitors of human leukocyte elastase” (Zeneca Limited, priority 1994, dated 1998)
